For data set [1], the target named is T1, Dual specificity calcium/calmodulin-dependent 3',5'-cyclic nucleotide phosphodiesterase 1C (Homo sapiens, UniProt Q14123). Kind of data set: Inhibition of PDE1C2 (147 to 531 residues) (unknown origin) using 3H-cGMP as substrate incubated for 15 mins by liquid scintillation counter analysis.
Data set [2] concerns the target T1, Dual specificity calcium/calmodulin-dependent 3',5'-cyclic nucleotide phosphodiesterase 1C. Kind of data set: Inhibition of PDE1C2 (147 to 531 residues) (unknown origin) using 3H-cGMP as substrate at 8000 nM incubated for 15 mins by liquid scintillation counter analysis relative to control.
A short description of data set [3]: Half life in rat liver microsomes at 1.5 uM. Type of data set: ADME, Microsome.
In data set [4] the test system is Rattus norvegicus. Put plainly: Antifibrotic activity against bile duct ligation induced Sprague-Dawley rat liver fibrosis model assessed as reduction in alpha-smooth muscle actin level in liver at 2.5 mg/kg,ip administrated once daily for 21 days by immunofluorescence staining based analysis. Type of data set: functional, organism-based. The following applies: time 21.0 day.

The test system of data set [5] is Rattus norvegicus. Put plainly: Antifibrotic activity against bile duct ligation induced Sprague-Dawley rat liver fibrosis model assessed as reduction in ALT level at 2.5 mg/kg,ip administrated once daily for 21 days. Type of data set: functional, organism-based. The settings on record: time 21.0 day.
Data set [6] relates to Rattus norvegicus. Kind of data set: Antifibrotic activity against bile duct ligation induced Sprague-Dawley rat liver fibrosis model assessed as downregulation of alpha-SMA expression in liver at 2.5 mg/kg,ip administrated once daily for 21 days by Western blotting analysis. The data set is classed as functional, organism-based. The following applies: time 21.0 day.
The subject of data set [7] is Rattus norvegicus. Put plainly: Antifibrotic activity against bile duct ligation induced Sprague-Dawley rat liver fibrosis model assessed as increase in cAMP level in liver at 2.5 mg/kg,ip administrated once daily for 21 days by ELISA. Type of data set: functional, organism-based. The following applies: time 21.0 day.
Data set [8] deals with Rattus norvegicus. Kind of data set: Antifibrotic activity against bile duct ligation induced Sprague-Dawley rat liver fibrosis model assessed as increase in cGMP level in liver at 2.5 mg/kg,ip administrated once daily for 21 days by ELISA. Type of data set: functional, organism-based. The settings on record: time 21.0 day.
Data set [9] relates to Rattus norvegicus. Kind of data set: Antifibrotic activity against bile duct ligation induced Sprague-Dawley rat liver fibrosis model assessed as reduction in liver damage at 2.5 mg/kg,ip administrated once daily for 21 days by hematoxylin and eosin staining based analysis. Type of data set: functional, organism-based. The following applies: time 21.0 day.
Data set [10] deals with Rattus norvegicus. Put plainly: Antifibrotic activity against bile duct ligation induced Sprague-Dawley rat liver fibrosis model assessed as downregulation of collagen I expression in liver at 2.5 mg/kg,ip administrated once daily for 21 days by Western blotting analysis. The settings on record: time 21.0 day. The data set is classed as functional, organism-based.
For data set [11], the system named is Rattus norvegicus. Kind of data set: Antifibrotic activity against bile duct ligation induced Sprague-Dawley rat liver fibrosis model assessed as reduction in fibrotic lesion at 2.5 mg/kg,ip administrated once daily for 21 days by hematoxylin and eosin staining based analysis. Type of data set: functional, organism-based. The following applies: time 21.0 day.

Data set [12] has as its system Rattus norvegicus. Put plainly: Antifibrotic activity against bile duct ligation induced Sprague-Dawley rat liver fibrosis model assessed as reduction in total bile acid level at 2.5 mg/kg,ip administrated once daily for 21 days. Type of data set: functional, organism-based. The settings on record: time 21.0 day.
Data set [13] concerns Rattus norvegicus. Put plainly: Antifibrotic activity against bile duct ligation induced Sprague-Dawley rat liver fibrosis model assessed as reduction in collagen deposition at 2.5 mg/kg,ip administrated once daily for 21 days by Masson's trichome staining based analysis. Type of data set: functional, organism-based. The settings on record: time 21.0 day.
The test system of data set [14] is Rattus norvegicus. Put plainly: Antifibrotic activity against bile duct ligation induced Sprague-Dawley rat liver fibrosis model assessed as reduction in AST level at 2.5 mg/kg,ip administrated once daily for 21 days. The data set is classed as functional, organism-based. The following applies: time 21.0 day.

Active and inactive are the calls of the source. The rule behind the calls is not given here.

Here are results for 20 compounds from ChEMBL document CHEMBL5506023, “Design, Synthesis, and Evaluation of Dihydropyrimidine Derivatives as Selective PDE1 Inhibitors for the Treatment of Liver Fibrosis” (J Med Chem, 2024).

T1 sequence (Q14123 whole entry, the tested form may be a part): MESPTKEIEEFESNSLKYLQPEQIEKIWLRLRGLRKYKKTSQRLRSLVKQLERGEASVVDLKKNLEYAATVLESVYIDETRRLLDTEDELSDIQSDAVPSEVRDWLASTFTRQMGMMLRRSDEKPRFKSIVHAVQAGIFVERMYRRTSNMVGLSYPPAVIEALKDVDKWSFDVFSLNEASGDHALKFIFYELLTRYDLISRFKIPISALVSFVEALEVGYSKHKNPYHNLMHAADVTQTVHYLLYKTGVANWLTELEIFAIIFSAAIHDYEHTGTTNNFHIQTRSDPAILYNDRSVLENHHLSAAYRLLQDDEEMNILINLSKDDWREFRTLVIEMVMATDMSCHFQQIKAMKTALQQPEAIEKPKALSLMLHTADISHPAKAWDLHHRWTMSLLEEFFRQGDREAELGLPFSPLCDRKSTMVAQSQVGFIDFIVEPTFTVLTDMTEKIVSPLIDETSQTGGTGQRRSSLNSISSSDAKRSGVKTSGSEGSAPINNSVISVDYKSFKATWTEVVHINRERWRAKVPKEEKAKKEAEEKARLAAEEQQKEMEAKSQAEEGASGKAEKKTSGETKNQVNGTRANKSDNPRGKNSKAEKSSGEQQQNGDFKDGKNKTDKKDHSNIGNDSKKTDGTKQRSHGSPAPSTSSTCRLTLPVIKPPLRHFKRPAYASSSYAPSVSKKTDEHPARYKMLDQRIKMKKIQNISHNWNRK

Take `CC1=C(C(=O)OCC2CCCCC2)C(c2ccc(Cl)nc2)N(C(=O)OCC2CCCCC2)C(=O)N1` (stereo unspecified): the IC50 in [1] is 195 nM. As to `CC1=C(C(=O)OCC2CCCCC2)C(c2ccc(OC(F)F)c(OCC3CC3)c2)N(C)C(=O)N1` (stereo unspecified), the inhibition in [2] is 45%. For the compound `COC(=O)C1=C(C)NC(=O)N(C(=O)SCc2ccccc2)C1c1ccc(OC(F)F)c(OCC2CC2)c1` (stereo unspecified), the IC50 in data set [1] came out at 103 nM.

In the case of `CC1=C(C(=O)OCC2CCCCC2)C(c2cccc(OCC3CC3)c2)N(C(=O)SCc2ccccc2)C(=O)N1` (stereo unspecified), the half-inhibitory concentration (IC50) in [1] worked out at 42 nM.

In turn, `COc1ccc(C2C(C(=O)OCC3CCCCC3)=C(C)NC(=O)N2C(=O)OCC2CCCCC2)cc1OC` (stereo unspecified) showed a half-life at 1.5 µM in [3] of 2.1 min. Also, the 50% inhibitory concentration (IC50) in data set [1] was 5.9 nM. For `CC1=C(C(=O)OCC2CCCCC2)C(c2ccc(OC(F)F)c(OC(F)F)c2)N(C(=O)OCC2CCCCC2)C(=O)N1` (stereo unspecified) the same measures were 3.03 min and 7.5 nM. With `CC1=C(C(=O)OCC2CCCCC2)C(c2ccc(OC(F)F)c(OCC3CC3)c2)N(C(=O)/C=C/c2ccccc2)C(=O)N1` (stereo unspecified), the IC50 in data set [1] stood at 6060 nM. As for `CC1=C(C(=O)OCC2CCCCC2)C(c2ccc(OC(F)F)c(OCC3CC3)c2)N(C(=O)OCC2CCCCC2)C(=O)N1` (stereo unspecified), in data set [3], the half-life at 1.5 µM is 3.68 min. Also, the half-maximal inhibitory concentration (IC50) in data set [1] amounted to 2.3 nM.

`COc1ccc(C2C(C(=O)OCC3CCCCC3)=C(C)NC(=O)N2C(=O)OCC2CCCCC2)cn1` (stereo unspecified): the half-inhibitory concentration (IC50) in data set [1] worked out at 51 nM.

For the compound `CC(=O)N1C(=O)NC(C)=C(C(=O)OCC2CCCCC2)C1c1ccc(OC(F)F)c(OCC2CC2)c1` (stereo unspecified), in data set [1], the IC50 was found to be 2320 nM. Regarding `CC1=C(C(=O)OCC2CCCCC2)C(c2ccc(OC(F)F)c(OCC3CC3)c2)N(Cc2cccc(F)c2)C(=O)N1` (stereo unspecified), in data set [2], the inhibition stood at 40%.

On to `COc1ccc(C2NC(=O)NC(C)=C2C(=O)OCC2CCCCC2)cc1OC` (stereo unspecified), for which the IC50 in data set [1] was found to be 3590 nM. Consider `CC1=C(C(=O)OCC2CCCCC2)C(c2ccc(OC(F)F)c(OCC3CC3)c2)N(C(=S)Oc2ccccc2)C(=O)N1` (stereo unspecified), for which, in data set [3], the half-life at 1.5 µM amounted to 6.1 min. Besides, in data set [1], the half-maximal inhibitory concentration (IC50) amounted to 5.8 nM.

On to `CC1=C(C(=O)OCC2CCCCC2)C(c2cccc(Oc3ccccc3)c2)NC(=O)N1` (stereo unspecified), for which, in data set [1], the IC50 is 2940 nM. On the same count and under the same terms, next, `COc1ccc(C2C(C(=O)OCC3CCCC3)=C(C)NC(=O)N2C(=O)OCC2CCCC2)cc1OC` (stereo unspecified): 42 nM. `CC1=C(C(=O)OCC2CCCCC2)C(c2ccc(OC(F)F)c(OCC3CC3)c2)N(/C=C/Cc2ccccc2)C(=O)N1` (stereo unspecified): in data set [2], the inhibition was found to be 47%. On to `COC(=O)C1=C(C)NC(=O)N(C(=O)OCC2CCCCC2)C1c1ccc(OC(F)F)c(OCC2CC2)c1` (stereo unspecified), for which the IC50 in data set [1] was found to be 37 nM.

In the case of `COc1ccc(C2C(C(=O)OCc3ccccc3)=C(C)NC(=O)N2C(=O)OCc2ccccc2)cc1OC` (stereo unspecified), the half-inhibitory concentration (IC50) in data set [1] was 63 nM.

Regarding `CCNC(=O)N1C(=O)NC(C)=C(C(=O)OCC2CCCCC2)C1c1ccc(OC(F)F)c(OCC2CC2)c1` (stereo unspecified), the IC50 in data set [1] was determined as 4690 nM. For `CC1=C(C(=O)OCC2CCCCC2)C(c2ccc(OC(F)F)cc2)N(C(=O)SCc2ccccc2)C(=O)N1` (stereo unspecified), in data set [3], the half-life at 1.5 µM is 7.1 min. Also, the result in data set [4], in data set [5], in data set [6], in data set [7], in data set [9] and in data set [10] was Active. The result in data set [11], in data set [12], in [13] and in data set [14] was Active. The result in data set [8] was inactive. Moreover, in data set [1], the IC50 was determined as 21 nM.
